From patent US20050233304A1, “Method of screening remedy for renal failure” (YAMANOUCHI PHARMACEUTICAL CO., LTD., priority 2002, published 2005)

Key:
Assay type in all cases: cell-based
[1] = molecular target: T1, human FGK (Homo sapiens, UniProt Q9BXA5, A284G/P282A); test: Screening of substances inhibiting FGK activity: pEF-BOS-Gqi + pSRE-luc luciferase reporter in HEK293 cells transfected with human FGK; conditions: pEF-BOS-Gqi and human FGK plasmid, 24 hours with compound, DMSO control = 100%, read-out: Example 5 Inhibition of pGqi + pSRE-luc reporter activity IC50
T1 construct: A complete cDNA coding for the FGK of the present invention was obtained by PCR using a human kidney cDNA; expressed in transfected cells; host or cells: HEK293 cells (ATCC), transient transfection with FuGENE6
T1 sequence (Q9BXA5 5-334 P282A/A284G): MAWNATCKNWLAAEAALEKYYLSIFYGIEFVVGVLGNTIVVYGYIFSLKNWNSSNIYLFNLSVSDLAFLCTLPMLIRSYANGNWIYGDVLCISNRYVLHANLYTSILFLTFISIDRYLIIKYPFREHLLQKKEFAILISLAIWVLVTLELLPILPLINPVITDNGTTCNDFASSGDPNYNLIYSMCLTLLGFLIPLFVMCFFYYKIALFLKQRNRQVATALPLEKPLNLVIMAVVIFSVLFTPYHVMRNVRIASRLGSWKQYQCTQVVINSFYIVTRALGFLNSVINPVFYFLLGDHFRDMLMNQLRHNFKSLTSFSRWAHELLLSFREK
Experimental: An expression plasmid used in the Example for expressing a chimeric protein of Gq and Gi was prepared by cloning, a gene (hereinafter, to be referred to as Gqi gene) constructed by replacing 5 amino acids in the Gq C-terminal side (Glu-Tyr-Asn-Leu-Val; the amino acid sequence represented by SEQ ID NO:15) with 5 amino acids in the Gi C-terminal side (Asp-Cys-Gly-Leu-Phe; the amino acid sequence represented by SEQ ID NO:16) in accordance with the method of Conklin, B. R. et al. (Nature, 363, 274-276, 1993) into the plasmid pEF-BOS-dhfr. The constructed plasmid was named pEF-BOS-Gqi.
As the illustrative method, firstly, using Dulbecco's modified Eagle's medium (DMEM) containing 10% fetal bovine serum, HEK293 cells (obtained from ATCC) were dispensed in 1×10^5 cells per well portions into a 24-well plate (Asahi Technbglass) and cultured for 24 hours. Then transfection of 0.05 μg of a reporter plasmid pSRE-luc in which a serum response sequence was inserted into upstream of a luciferase gene (PathDetect™ SRE cis-Reporting System; Stratagene), 0.05 μg of pEF-BOS-Gqi and 0.5 μg at the maximum of a human FGK expression plasmid which is 0.6 μg in total per well was carried out using a transfection reagent (FuGENE6; Boehringer-Roche). Cells transfected with the pcDNA3.1 vector alone without containing FGK, together with the reporter plasmid and pEF-BOS-Gqi, was used as the control. Other conditions and measurement of the reporter activity were as described in Example 3. Increase in the reporter activity by the expression of FGK was observed. Additionally, dose-dependent activation by FGK was also observed.
Screening of a test substance was carried out using the screening system which uses changes in FGK activity as the index, constructed in Example 4.
Using 10% fetal bovine serum-containing Dulbecco's modified Eag;e's medium(DMEM),HEK293 cells(obtained from ATCC) were inoculated in 1×10^4 cells per well portions into a 96-well plate (Asahi Technoglass) and cultured at 37° C. for 24 hours. Transfection of 0.01 μg of the reporter plasmid pSRE-luc (Example 4), 0.03 μg of pEF-BOS-Gqi and 0.02 μg of a human FGK expression plasmid which is 0.06 μg in total per well was carried out using a transfection reagent (FuGENE6; Boehringer-Roche). After 6 hours of incubation at 37° C., a dimethyl sulfoxide solution of each test compound was added to become a final concentration of 30 μM, 10 μM, 3 μM, […], 0.3 μM or 0.1 μM, and then incubated at 37° C. for additional 24 hours. Thereafter, the reporter activity was measured to determine 50% activity inhibition concentration (IC50) of each test compound. As a control of the compound treatment, reporter activity when the same volume of dimethyl sulfoxide alone was added was regarded as 100%. Other conditions and measurement of reporter activity were as described in Example 4.

[2] = test system: CTGF mRNA expression; test: Inhibition of intrinsic CTGF mRNA expression in primary human proximal renal tubule epithelium cells (RPTEC), real time PCR; conditions: 10 μM compound, 24 hours, CTGF/G3PDH, DMSO control = 100%
Experimental: Primary culture cells of human proximal renal tubule epithelium (RPTEC; Asahi Technoglass) were plated at 2×10^5 cells per well into 12-well plates (Asahi Technoglass) using a proliferation medium for kidney epithelial cell use (Burette Kit REGM; Asahi Technoglass). After incubation for 24 hours at 37° C., each of the test compounds obtained in Example 5 (substances which inhibit FGK activity, namely FGK inverse agonists) was added thereto to a final concentration of 10 μM, and then incubated for additional 24 hours at 37° C. Thereafter, the cells were collected and the total RNA was purified using a spin column (RNeasy Mini Kit; Qiagen). Reverse transcription reaction was carried out using 1.5 μg of the total RNA and a reverse transcriptase (PowerScript Transcriptase; BD Biosciences) to obtain cDNA samples. Using each of them as the template, expressed amounts of CTGF and a housekeeping gene of glyceraldehyde 3-phosphate dehydrogenase (to be referred to as G3PDH hereinafter) were measured by real time PCR using PRISM 7700 Sequence Detector (PERKIN ELMER). In the PCR, SYBR Green PCR Master Mix (Applied Biosystems) was used, and after heating at 50° C. (2 minutes) and 95° C. (10 minutes), a cycle of 95° C. (15 seconds)/60° C. (60 seconds) was repeated for 40 times. For the detection of CTGF, an oligonucleotide represented by SEQ ID NO:17 was used as the forward primer, and an oligonucleotide represented by SEQ ID NO:18 was used as the reverse primer. For the detection of G3PDH, an oligonucleotide represented by SEQ ID NO:19 was used as the forward primer and an oligonucleotide represented by SEQ ID NO:20 was used as the reverse primer. A value calculated by dividing the expressed amount of CTGF by the expressed amount of G3PDH, both obtained by the PCR, was defined as the CTGF expression quantity per unit RNA quantity. Also, as a control of the compound treatment, the CTGF expression quantity per unit RNA quantity when the same volume of dimethyl sulfoxide alone was added was regarded as 100%. The inhibitory activity of CTGF expression obtained by the assay (inhibitory activity at a compound concentration of 10 μM) is shown in Table 1.

[3] = test system: CTGF promoter activation by FGK; test: Inhibition of CTGF promoter activation by FGK: pCTGF-luc reporter in HEK293 cells transfected with human FGK; conditions: HEK293 cells transfected with pCTGF-luc and human FGK plasmid; 24 hours with compound; DMSO control = 100%; read-out: Example 7 Inhibition of pCTGF-luc activity IC50
Experimental: Using Dulbecco's modified Eagle's medium (DMEM) containing 10% fetal bovine serum, HEK293 cells (obtained from ATCC) were dispensed in 1×10^5 cells per well portions into a 24-well plate (Asahi Technoglass) and cultured at 37° C. for 24 hours. Transfection of 0.1 μg of a reporter plasmid and 0.5 μg at the maximum of a human FGK expression plasmid which is 0.6 μg in total per well was carried out using a transfection reagent (FuGENE6; Boehringer-Roche) in accordance with the instructions attached thereto. In this case, the amount of the transfected genes in each of the all wells was adjusted to 0.6 μg in total per well by adding a plasmid vector (pcDNA3.1; Invitrogen). Cells transfected with the pcDNA3.1 vector alone without containing FGK, together with the reporter plasmid, was used as the control. The medium was discarded 24 hours after transfection, and the residue was lysed by adding 100 μl per well of a cell lysis buffer. A […] portion of the lysate was mixed with 100 μl of a luciferin substrate solution and allowed to undergo the reaction to be measured using a luminometer (ML3000; Dynatech Laboratories). Activation of the CTGF promoter and COLIA2 promoter by the expression of FGK was observed. Additionslly, dose-dependent activation by FGK was also observed.
Screening of a test compound constructed in Example 3 was carried out using the CTGF promoter activation system by FGK.
HEK293 cells (obtained from ATCC) were plated at 1×10^4 cells per well into 96-well plates (Asahi Technoglass) in Dulbecco's modified Eagle's medium containing 10% fetal bovine serum (DMEM). After incubation for 24 hours at 37° C., cells were transfected with 0.02 μg of pCTGF-luc (cf. Example 2) and 0.02 μg of a human FGK expression plasmid which is 0.04 μg in total per well was carried out using a transfection reagent (FuGENE6; Boehringer-Roche). After incubation for 6 hours at 37° C., a dimethyl sulfoxide solution of each test compound was added thereto to become a final concentration of 30 µM, 10 μM, 3 μM, […], 0.3 μM or […], and then incubated at 37° C. for additional 24 hours. Thereafter, the reporter activity was measured to determine 50% activity inhibition concentration (IC50) of each test compound. As a control of the compound treatment, reporter activity when the same volume of dimethyl sulfoxide alone was added was regarded as 100%. Other conditions and measurement of reporter activity were as described in Example 3. Substances which inhibit CTGF promoter activation by FGK were selected, and the substances having an IC50 value of 10 μM or less were shown in Table 1. It was confirmed that a substance which inhibits CTGF expression by the assay system, namely a substance useful as a renal failure treating agent can be certainly be screened.

IC50 [1] [µM]	IC50 [3] [µM]	SMILES	Example 6 Inhibition Intrinsic CTGF mRNA Expression at 10 μM [2] [%]
6.1	14.1	CCOc1ccc(Nc2nc(-c3sc(N)nc3C)cs2)cc1 [No 1, N^2-(4-ethoxyphenyl)-4′-methyl-4,5′-bi-1,3-thiazole-2,2′-diamine]	62
4.6	16.1	COc1ccc(Cl)cc1Nc1nc(-c2cccs2)cs1 [No 2, N-(5-chloro-2-methoxyphenyl)-4-(2-thienyl)-1,3-thiazole-2-amine]	72
0.6	2.6	CC(=O)Nc1nc(C)c(-c2csc(Nc3cccc(C)c3)n2)s1 [No 3, N-[4′-methyl-2-[(3-methylphenyl)amino]-4,5′-bi-1,3-thiazol-2′-yl]acetamide hydrobromate]	79
3.9	3.6	CC(=O)Nc1ccc(-c2csc(Nc3cccc(C(F)(F)F)c3)n2)cc1 [No 4, N-[4-(2-{[3-(trifluoromethyl)phenyl]amino}-1,3-thiazol-4-yl)phenyl]acetamide]	65
2.5	1.8	CC(=O)Nc1nc(C)c(-c2csc(Nc3ccc(O)cc3)n2)s1 [No 5, N-{2-[(4-hydroxyphenyl)amino]-4′-methyl-4,5′-bi-1,3-thiazol-2′-yl}acetamide hydrobromate]	81
6.8	3.8	CCOC(=O)c1c(C)nn(-c2ccc(NC(=O)c3ccccc3C(=O)O)cc2)c1C [No 6, 2-[({4-[4-(ethoxycarbonyl)-3,5-dimethyl-1H-pyrazol-1-yl]phenyl}amino)carbonyl]benzoic acid]	35
3.1	1.7	Cc1cc(C(=O)C(F)(F)F)c(C)n1-c1ccc(NC(=O)c2ccccc2F)cc1 [No 7, N-{4-[2,5-dimethyl-3-(trifluoroacetyl)-1H-pyrrol-1-yl]phenyl}-2-fluorobenzamide]	36
